Laboratory results published in patent publication US20260226100A1, “Compound - Diagnostic Marker For Biliary Tract Cancer, Method For Detecting Enzymatic Activity, Method For Diagnosis Of Biliary Tract Cancer, Kit Comprising The Compound, Uses Of The Compound And Method For The Treatment Of Biliary Tract Cancer” (Urteste S.A., priority 2023, published 2026).
Where “and” joins values, the source holds several entries; their conditions need not be identical. Equal entries are not always repeated. *1 amine or outer side, *2 acyl side, *3 side chain or, on linkers, in order; H or OH if unused. Where no end group is shown, it is not given here. [ ]: non-standard residue; d: D form. Benzoyl(5-NH,2-NO2) = O=C(c1cc(N[*:1])ccc1[N+](=O)[O-])[*:2]; 2Abz = Nc1ccccc1C(=O)O

Columns and labels:
Assay type in all cases: biochemical, human
[1] = tested on: proteolytic enzymes in urine from a subject suffering from biliary tract cancer; assay: Absorbance measurement of substrate hydrolysis in urine from subjects with biliary tract cancer; conditions: for absorbance: 405 nm, pH 8.0, 37° C., 60 minutes, triplicate
Protocol: (§1) The activity of the novel compounds according to the invention was studied in a group of 20 subjects diagnosed with biliary tract cancer using the representative compound according to the invention. […] The remaining compounds according to the invention are characterized by the analogous mechanism of action. For this purpose, the representative compound according to the invention, ABZ^1-Glu^2-Arg^3-Arg^4-Ala^5-NH2, was dissolved in dimethyl sulfoxide (at a concentration of 0.5 mg/mL) and then 50 L of the solution was mixed with 120 L of a buffer (200 mM Tris-HCl, pH 8.0) and 80 L of urine from a subject suffering from biliary tract cancer. The measurement was performed on a 96-well plate designed for measuring absorbance and each sample was analysed in triplicate at the temperature of 37° C. The duration of the measurement was 60 minutes. During the measurement, the wavelength characteristic for the chromophore (ANB-NH2) being released was monitored at the wavelength 405 nm (range 380-430 nm).
The observed magnitude of increase in absorbance in time is different for each of the examined samples.
Such a result may be due to the difference in the activity as well as the amount of enzymes responsible for the enzymatic cleavage (proteolysis). […] The result indicates the absence of proteolytic enzymes specific/characteristic of biliary tract cancer.

[2] = tested on: urine samples taken from healthy persons; assay: Absorbance measurement of substrate hydrolysis in urine from healthy subjects; conditions: for absorbance: 405 nm, pH 8.0, 37° C., 60 minutes, triplicate
[3] = tested on: urine samples from subjects with biliary tract cancer or another neoplastic disease; assay: Selectivity of substrate cleavage in urine of patients with different cancer types; conditions: urine of patients with testicle, large intestine, kidney, prostate, pancreas, liver, lung, ovarian and rectum cancer
Excerpt: The samples tested for each type of cancer were derived from 20 different patients for each of the tested cancers. The results are mean values for given cancer types.
as §1
Furthermore, the dependence of the cleavage selectivity of the substrate, i.e. the compound according to the invention, on the cancer type being examined, was studied. […]

cleavage of the substrate ([1]; all urine samples 1-13 from persons suffering from biliary tract cancer): underwent cleavage | absorbance ([1]; urine sample 1, biliary tract cancer): 0.004 and 0.002 and 0.003 | absorbance ([1]; urine sample 2, biliary tract cancer): 0.0068 and 0.0034 and 0.0053 | absorbance ([1]; urine sample 3, biliary tract cancer): 0.0035 and 0.005 and 0.0048 | absorbance ([1]; urine sample 4, biliary tract cancer): 0.004 and 0.0067 and 0.0051 | absorbance ([1]; urine sample 6, biliary tract cancer): 0.002 and 0.0021 and 0.0026 | absorbance ([1]; urine sample 7, biliary tract cancer): 0.084 and 0.092 and 0.087 | absorbance ([1]; urine sample 8, biliary tract cancer): 0.0746 and 0.0948 and 0.084 | absorbance ([1]; urine sample 9, biliary tract cancer): 0.053 and 0.0458 and 0.0497 | absorbance ([1]; urine sample 10, biliary tract cancer): 0.0436 and 0.035 and 0.041 | absorbance ([1]; urine sample 11, biliary tract cancer): 0.0051 and 0.0041 and 0.0048 | absorbance ([1]; urine sample 12, biliary tract cancer): 0.0025 and 0.0028 and 0.0032 | absorbance ([1]; urine sample 13, biliary tract cancer): 0.0046 and 0.005 and 0.0047
Substance: ABZ-Glu-Arg-Arg-Ala-ANB-NH2 ([2Abz]ERRA-{Benzoyl(5-NH,2-NO2)-NH2})
absorbance ([2]; urine sample 14, healthy subject): 0.000000 | absorbance ([2]; urine sample 15, healthy subject): 0.000000 | absorbance ([2]; urine sample 16, healthy subject): 0.000000 | absorbance ([2]; urine sample 17, healthy subject): 0.000000 | absorbance ([2]; urine sample 18, healthy subject): 0.000000 | absorbance ([2]; urine sample 19, healthy subject): 0.000000 | absorbance ([2]; urine sample 20, healthy subject): 0.000000 | absorbance ([2]; urine sample 21, healthy subject): 0.000000 | absorbance ([2]; urine sample 22, healthy subject): 0.000000 | absorbance ([2]; urine sample 23, healthy subject): 0.000000 | increase in absorbance / hydrolysis ([2]; urine samples 14 to 23 from healthy persons): does not lead to an increase in absorbance | cleavage of the substrate / increase in absorbance [3]: is not subject to cleavage
